# From ChEMBL document CHEMBL6127044, “An insight into G-quadruplexes: Identification and potential therapeutic targets in livestock viruses” (Eur J Med Chem, 2024)
# Tests used:
# [1] = system: Porcine epidemic diarrhea virus; assay: Antiviral activity against Porcine epidemic diarrhea virus infected in African green monkey Vero E6 cells assessed as inhibition of viral replication at 25 uM relative to control; format: functional; details: Vero C1008
# Vero = assay: Cytotoxicity against African green monkey Vero cells at 50 uM incubated for 24 hrs by MTT assay relative to control; format: toxicity, cell-based; details: chlorocebus sabaeus
smiles,measurement,setting,value
C[n+]1ccc(-c2c3nc(c(-c4cc[n+](C)cc4)c4ccc([nH]4)c(-c4cc[n+](C)cc4)c4nc(c(-c5cc[n+](C)cc5)c5ccc2[nH]5)C=C4)C=C3)cc1 [TMPYP4 CHLORIDE],inhibition at 25 µM,[1],99%
C[n+]1cc(NC(=O)c2ccc3ccc4ccc(C(=O)Nc5cc6ccccc6[n+](C)c5)nc4c3n2)cc2ccccc21,Activity,Vero,80%
NCCOc1cc(C(=O)Nc2cc(OCCN)c3ccccc3n2)nc(C(=O)Nc2cc(OCCN)c3ccccc3n2)c1 [PYRIDOSTATIN],inhibition at 25 µM,[1],99%
same,Activity,Vero,80%
